# Measurements published in PubChem BioAssay AID2060512 (Molecular Pharmacology Branch, DTP, NCI, 2025).
# System: 186277-243-T-J2-PDC complex spheroid viability
# Assay: Anticancer human tumor 186277-243-T-J2-PDC patient-derived colon adenocarcinoma cell line growth inhibition [GQUAD]
# Conditions: for IC50: curve of first compound; for viability, T/C: stronger effect = lower value
# Method in brief: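 Multi-cell-type spheroids of tumor cells with HUVEC and mesenchymal stem cells, treated with drug combinations. Concentrations descend in half-log steps from near clinical Cmax, or from 10 microM where Cmax is unknown; viability read-out.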
# [1] = second compound 0.0316 µM, first compound 0.0316 µM
# [2] = second compound 0.0316 µM, first compound 0.1 µM
# [3] = second compound 0.0316 µM, first compound 0.316 µM
# [4] = second compound 0.0316 µM, first compound 1 µM
# [5] = second compound 0.0316 µM, first compound 3.16 µM
# [6] = second compound 0.0316 µM, first compound 10 µM
# [7] = second compound 0.1 µM, first compound 0.0316 µM
# [8] = second compound 0.1 µM, first compound 0.1 µM
# [9] = second compound 0.1 µM, first compound 0.316 µM
# [10] = second compound 0.1 µM, first compound 1 µM
# [11] = second compound 0.1 µM, first compound 3.16 µM
# [12] = second compound 0.1 µM, first compound 10 µM
# [13] = second compound 0.316 µM, first compound 0.0316 µM
# [14] = second compound 0.316 µM, first compound 0.1 µM
# [15] = second compound 0.316 µM, first compound 0.316 µM
# [16] = second compound 0.316 µM, first compound 1 µM
# [17] = second compound 0.316 µM, first compound 3.16 µM
# [18] = second compound 0.316 µM, first compound 10 µM
# [19] = second compound 1 µM, first compound 0.0316 µM
# [20] = second compound 1 µM, first compound 0.1 µM
# [21] = second compound 1 µM, first compound 0.316 µM
# [22] = second compound 1 µM, first compound 1 µM
# [23] = second compound 1 µM, first compound 3.16 µM
# [24] = second compound 1 µM, first compound 10 µM
# [25] = second compound 3.16 µM, first compound 0.0316 µM
# [26] = second compound 3.16 µM, first compound 0.1 µM
# [27] = second compound 3.16 µM, first compound 0.316 µM
# [28] = second compound 3.16 µM, first compound 1 µM
# [29] = second compound 3.16 µM, first compound 3.16 µM
# [30] = second compound 3.16 µM, first compound 10 µM
# [31] = second compound 10 µM, first compound 0.0316 µM
# [32] = second compound 10 µM, first compound 0.1 µM
# [33] = second compound 10 µM, first compound 0.316 µM
# [34] = second compound 10 µM, first compound 1 µM
# [35] = second compound 10 µM, first compound 3.16 µM
# [36] = second compound 10 µM, first compound 10 µM
# 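Also: spheroids exposed to drugs for 7 days.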
# 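For viability, T/C in this document: 100% = DMSO vehicle control viability.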
smiles,measurement,setting,value
CC1COCCN1c1cc(C2(O)CC3CCC(C2)O3)c2cnn(-c3ccn[nH]3)c2n1 (stereo unspecified) + Cc1cnc(CNC(=O)c2c(=O)c3ccc(N4CCCN(C)CC4)nc3n3c2sc2ccccc23)cn1,IC50,second compound 0.0316 µM,< 31.6 nM
same,IC50,second compound 0.1 µM,< 31.6 nM
same,IC50,second compound 0.316 µM,< 31.6 nM
same,IC50,second compound 1 µM,< 31.6 nM
same,IC50,second compound 3.16 µM,< 31.6 nM
same,IC50,second compound 10 µM,< 31.6 nM
same,"viability, T/C",[1],31.3%
same,"viability, T/C",[2],13.1%
same,"viability, T/C",[3],5.91%
same,"viability, T/C",[4],3.51%
same,"viability, T/C",[5],5.56%
same,"viability, T/C",[6],3.63%
same,"viability, T/C",[7],38.7%
same,"viability, T/C",[8],16.4%
same,"viability, T/C",[9],8.6%
same,"viability, T/C",[10],4.53%
same,"viability, T/C",[11],4.78%
same,"viability, T/C",[12],2.97%
same,"viability, T/C",[13],37.7%
same,"viability, T/C",[14],20.9%
same,"viability, T/C",[15],13.4%
same,"viability, T/C",[16],6.49%
same,"viability, T/C",[17],4.71%
same,"viability, T/C",[18],2.1%
same,"viability, T/C",[19],29.5%
same,"viability, T/C",[20],31.5%
same,"viability, T/C",[21],16.4%
same,"viability, T/C",[22],8.79%
same,"viability, T/C",[23],5.94%
same,"viability, T/C",[24],0.5%
same,"viability, T/C",[25],36.2%
same,"viability, T/C",[26],31%
same,"viability, T/C",[27],19.5%
same,"viability, T/C",[28],10.8%
same,"viability, T/C",[29],5.54%
same,"viability, T/C",[30],0.33%
same,"viability, T/C",[31],34.9%
same,"viability, T/C",[32],28.4%
same,"viability, T/C",[33],23.2%
same,"viability, T/C",[34],10.9%
same,"viability, T/C",[35],6.86%
same,"viability, T/C",[36],0.13%
CC1COCCN1c1cc(C2(S(C)(=N)=O)CC2)nc(-c2ccnc3[nH]ccc23)n1 (stereo unspecified) + Cc1cnc(CNC(=O)c2c(=O)c3ccc(N4CCCN(C)CC4)nc3n3c2sc2ccccc23)cn1,IC50,second compound 0.0316 µM,787 nM
same,IC50,second compound 0.1 µM,579 nM
same,IC50,second compound 0.316 µM,885 nM
same,IC50,second compound 1 µM,564 nM
same,IC50,second compound 3.16 µM,< 31.6 nM
same,IC50,second compound 10 µM,65.4 nM
same,"viability, T/C",[1],107%
same,"viability, T/C",[2],92.4%
same,"viability, T/C",[3],89.8%
same,"viability, T/C",[4],39.4%
same,"viability, T/C",[5],13.1%
same,"viability, T/C",[6],8.67%
same,"viability, T/C",[7],101%
same,"viability, T/C",[8],73.4%
same,"viability, T/C",[9],68.2%
same,"viability, T/C",[10],39.8%
same,"viability, T/C",[11],18.4%
same,"viability, T/C",[12],9.76%
same,"viability, T/C",[13],73.3%
same,"viability, T/C",[14],83.1%
same,"viability, T/C",[15],66.7%
same,"viability, T/C",[16],47.5%
same,"viability, T/C",[17],27.2%
same,"viability, T/C",[18],17%
same,"viability, T/C",[19],46.2%
same,"viability, T/C",[20],64.6%
same,"viability, T/C",[21],64.6%
same,"viability, T/C",[22],41.6%
same,"viability, T/C",[23],31.6%
same,"viability, T/C",[24],21.3%
same,"viability, T/C",[25],41.8%
same,"viability, T/C",[26],48.6%
same,"viability, T/C",[27],50.6%
same,"viability, T/C",[28],44.5%
same,"viability, T/C",[29],39.2%
same,"viability, T/C",[30],19.4%
same,"viability, T/C",[31],50.6%
same,"viability, T/C",[32],52%
same,"viability, T/C",[33],43.2%
same,"viability, T/C",[34],37%
same,"viability, T/C",[35],31.6%
same,"viability, T/C",[36],22%
COc1ccc([C@@H](O)c2cc(-c3ncnc4cc(N5CCOCC5)ccc34)c(F)cc2Cl)nn1 + Cc1cnc(CNC(=O)c2c(=O)c3ccc(N4CCCN(C)CC4)nc3n3c2sc2ccccc23)cn1,IC50,second compound 0.0316 µM,1880 nM
same,IC50,second compound 0.1 µM,1370 nM
same,IC50,second compound 0.316 µM,708 nM
same,IC50,second compound 1 µM,397 nM
same,IC50,second compound 3.16 µM,129 nM
same,IC50,second compound 10 µM,< 31.6 nM
same,"viability, T/C",[1],94.7%
same,"viability, T/C",[2],100%
same,"viability, T/C",[3],97.5%
same,"viability, T/C",[4],59%
same,"viability, T/C",[5],42.5%
same,"viability, T/C",[6],17.5%
same,"viability, T/C",[7],86.7%
same,"viability, T/C",[8],81.3%
same,"viability, T/C",[9],69.9%
same,"viability, T/C",[10],56.6%
same,"viability, T/C",[11],34.8%
same,"viability, T/C",[12],14.3%
same,"viability, T/C",[13],72.3%
same,"viability, T/C",[14],67%
same,"viability, T/C",[15],60.4%
same,"viability, T/C",[16],42.8%
same,"viability, T/C",[17],32.3%
same,"viability, T/C",[18],7.31%
same,"viability, T/C",[19],55.5%
same,"viability, T/C",[20],61.1%
same,"viability, T/C",[21],55.8%
same,"viability, T/C",[22],34.9%
same,"viability, T/C",[23],23.5%
same,"viability, T/C",[24],6.14%
same,"viability, T/C",[25],57.2%
same,"viability, T/C",[26],49.1%
same,"viability, T/C",[27],45.6%
same,"viability, T/C",[28],34.2%
same,"viability, T/C",[29],26.6%
same,"viability, T/C",[30],5.25%
same,"viability, T/C",[31],46.4%
same,"viability, T/C",[32],42.2%
same,"viability, T/C",[33],45%
same,"viability, T/C",[34],34.5%
same,"viability, T/C",[35],22.2%
same,"viability, T/C",[36],4.67%
